Experimental data as given in US4073786A, “2-Amino-4-hydroxy-6-hydroxymethyl-7,7-diethyl-7,8-dihydropteridine and the 7-spirocyclohexyl analogue thereof” (Burroughs Wellcome Co., priority 1975, dated 1978).

Key:
[1] = target: hydroxymethyldihydropteridine pyrophosphokinase (HMPPS) (Escherichia coli, UniProt P26281); assay: Inhibition of the enzymes forming dihydropteroic acid (HMPPS ATP-γ-P32 transfer assay; synthetase pAB-C14 assay); type: biochemical; conditions: E. coli extract enzymes; result of tests (a) HMPPS and (b) synthetase
Method: The inhibiting activity against HMPPS of a selected compound of formula (I) can, for instance, be tested by monitoring the transfer of the terminal phosphate of adenosinetriphosphate/ATP-γ-P^32 to `dihydropteridine`. […] Such inhibition may, for instance, be easily and simply carried out by incubating an extract of E. coli with pAB-7-C^14, ATP, Mg and `dihydropteridine`. The formation of the dihydropteroate-C^14 can be quantitatively assayed after separating the unreacted pAB substrate, for instance by chromatography. […] Preferably the value is 25μM or less, such as in the range between 2 to 12μM. Generally a value below 7μM is desirable. […]
(a) An assay for HMPPS was developed in which the transfer of the terminal phosphate of ATP-γ-P^32 to Pt could be monitored and correlated with the amount of inhibition of HMPPS by the compound under test. […]
Tubes 1 to 9 containing the amounts of components shown in the Table, were filled up to 200μl with distilled water, incubated for 60 minutes at 37° C and then chilled on ice. […] The charcoal and the filter were then radioactively counted. […]
(b) The activity of the test compound of formula (I) against `synthetase` was determined as follows, by monitoring the formation of dihydropteroate C^14. […]

[2] = test system: Staphylococcus aureus; assay: Inhibitor zone test, pteridine in agar with TMP and/or SMX in the well; type: cell-based; conditions: conclusion from Table 3
Method: The pteridine was included in a soya peptone medium of low thymidine content (Wellcotest Sensitivity test agar) contained in a Petri dish and the other component(s) added to the well resulting from the removal of a small plug from the medium. The surface of the medium was inoculated with the test organism and then incubated. The amount of zone inhibition is shown in Table 3, wherein the numbers represent the complete zone inhibition (i.e. the number of […] from the edge of the well after about 6 × magnification) and the figures in parenthesis include the zones of partial inhibition.

[3] = test system: Cl. perfringens; conditions: British Pat. No. 1303171 and Application No. 36289/70; cited from earlier work
[4] = test system: Derm. dermatonomous; conditions: British Pat. No. 1303171 and Application No. 36289/70; cited from earlier work

hydroxymethyldihydropteridine pyrophosphokinase (HMPPS), sequence (P26281 whole entry): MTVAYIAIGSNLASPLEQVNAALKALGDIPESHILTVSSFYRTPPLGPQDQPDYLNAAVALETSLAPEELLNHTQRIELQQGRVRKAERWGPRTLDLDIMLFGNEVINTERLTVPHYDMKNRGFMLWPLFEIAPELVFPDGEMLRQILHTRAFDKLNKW

| Compound | IC50 [1] | synergistic activity with TMP and/or SMX [2] | bacteriostatic activity [3] | bacteriostatic activity [4] |
| --- | --- | --- | --- | --- |
| CCC1(CC)Nc2nc(N)nc(O)c2N=C1CO [R=CH2 OH R^1 =R^2 =Et, 2-amino-4-hydroxy-6-hydroxymethyl-7,7-diethyl-7,8-dihydropteridine] | 2100 nM | synergism with TMP and SMX alone and multiple synergism with both |  |  |
| CC1=Nc2c(nc(N)[nH]c2=O)NC1(C)C [2-amino-4-hyroxy-6-methyl-7,7-dimethyl-7,8-dihydropteridine] |  |  | particularly effective | particularly effective |
| CC1(C)Nc2nc(N)nc(O)c2N=C1CO [2-amino-4-hydroxy-6-hydroxymethyl-7,7-dimethyl-7,8-dihydropteridine] |  |  | particularly effective | particularly effective |
